{"source": "a melting point compilation (Tetko et al.; mined from patent text by program, amines drawn as free bases though some values may be those of a salt)", "data": [{"units": {"melting point": "°C"}, "values": [{"smiles": "CNC(=S)C1=C(O)C(C)(C)Oc2ccc([N+](=O)[O-])cc21", "melting point": "148 to 149"}, {"smiles": "NC(=O)N1C(=O)C(=C(OC(=O)c2cccc(C(=O)O)c2)c2cccs2)c2cc(F)c(Cl)cc21", "melting point": "244 to 248"}, {"smiles": "COc1cccc(-c2nc(N)nc(Nc3cccc(Br)c3)n2)c1", "melting point": 142}, {"smiles": "O=c1nc(-c2ccccc2)c2cc([N+](=O)[O-])ccc2n1CC12CC3CC(CC(C3)C1)C2", "melting point": "228 to 231"}, {"smiles": "Cc1ccc(C(=O)c2ccc3[nH]c(=O)nc(-c4cccc(Cl)c4)c3c2)cc1", "melting point": 181}, {"smiles": "COC(=O)C1=Cc2cccc(C=O)c2OCC1", "melting point": "122 to 124"}, {"smiles": "Fc1ccc(NC(=S)c2ccccn2)cc1Cn1ccnc1", "melting point": "154 to 156"}, {"smiles": "CNc1nc(Br)cn2c(Br)cnc12", "melting point": 229}, {"smiles": "CN1CC[C@H]2Cc3[nH][nH]c(=O)c3C[C@@H]2C1", "note": "(relative stereo)", "melting point": "245 to 247"}, {"smiles": "COc1ccc(C2(CCN3CCC(C(O)(c4ccccc4)c4ccccc4)CC3)CCN(C(=O)c3cc(OC)c(OC)c(OC)c3)C2)cc1OC", "note": "(centres undefined)", "melting point": "95 to 97"}, {"smiles": "Cc1cc(CN(Cc2ccco2)c2sc(-c3ccc(C(F)(F)F)cc3)nc2C)ccc1OC(C)(C)C(=O)O", "melting point": 80}, {"smiles": "CC(Sc1ccc(NC(=O)NC(=O)c2ccccc2Cl)cc1)c1ccccc1", "note": "(centres undefined)", "melting point": 226}, {"smiles": "CONC(=O)Nc1ccc(-c2sc3c(c2CN(C)C(C)c2ccccc2)c(=O)n(-c2ccc(F)cn2)c(=O)n3Cc2c(F)cccc2F)cc1", "note": "(centres undefined)", "melting point": "128 to 130"}, {"smiles": "CN1CC=C(C2=C(C#N)C(c3cccc4nonc34)c3c[nH]nc3N2)CC1", "note": "(centres undefined)", "melting point": 218}, {"smiles": "CC(=O)OCC1Cc2c(C3=C(c4cn(C)c5ccccc45)C(=O)OC3=O)c3ccccc3n2C1", "note": "(centres undefined)", "melting point": "208 to 211"}, {"smiles": "O=c1ccc2ccc(OCCCCN3CCCN(c4cccc(Cl)c4Cl)CC3)cc2[nH]1", "melting point": "55 to 57"}, {"smiles": "CC(C)(C)OC(=O)[C@@H]1CCCN1C(=O)C=CC(F)(F)F", "melting point": "119 to 120"}, {"smiles": "O=c1[nH]c(=O)n(C2CC(O)C(CO)O2)cc1C=CBr", "note": "(centres undefined)", "melting point": "165 to 166"}, {"smiles": "COC(=O)c1c(C)[nH]c(C)c1C1=CC(=O)c2cccc(O)c2C1=O", "melting point": "98 to 99"}, {"smiles": "Cc1ccc(S(=O)(=O)N(C)c2ccc(Cl)cc2CO)cc1", "melting point": "130 to 132"}, {"smiles": "CCCCCCCCCCCCCCCCCC(=O)N1CC2(CCCCC2)NC2(CCCCC2)C1", "melting point": "56 to 59"}, {"smiles": "COC(=O)Cn1ccnc1Cc1ccccc1", "melting point": 70.8}, {"smiles": "O=C1CC2(CCCCC2Cc2ccccc2)S(=O)(=O)CCN1", "note": "(centres undefined)", "melting point": "130 to 135"}, {"smiles": "OC1CSC(Oc2ccc(-c3ccnc(Cl)c3)nc2)C(O)C1O", "note": "(centres undefined)", "melting point": 179}, {"smiles": "Fc1c(F)c(F)c2c(CCNCc3cccc(OCC(F)(F)F)c3)c[nH]c2c1F", "melting point": "107 to 108"}, {"smiles": "COc1ccc(-c2n[nH]c3c2c(=O)n(-c2ccccc2)c2ncccc32)cc1", "melting point": "> 300"}, {"smiles": "O=C(CNc1ccc2[nH]c(=O)[nH]c2c1)N1CCC(Cc2ccc(F)cc2)CC1", "melting point": "85 to 87"}, {"smiles": "Fc1cccc(F)c1-c1ccc2ncccc2c1", "melting point": "112 to 113"}, {"smiles": "O=C(c1ccccc1)c1ccc(F)c([N+](=O)[O-])c1", "melting point": 59}, {"smiles": "Cc1noc(-c2cc3c4ccccc4n(C)c3s2)n1", "melting point": "200 to 201"}, {"smiles": "N#Cc1ccc2c(c1)c(C1CCC3(CC1)OCCO3)cn2Cc1ccccc1", "melting point": "129 to 130"}, {"smiles": "CC(C(=O)O)c1ccc2c(c1)CC(C)(C)C2", "note": "(centres undefined)", "melting point": "180 to 183"}, {"smiles": "CCCCCCOc1cc(C(=O)O)cc([N+](=O)[O-])c1C(=O)c1ccccc1", "melting point": "165 to 166"}, {"smiles": "COc1ccc(-c2cc[nH]c(=O)n2)cc1OC1CC2CCC1C2", "note": "(centres undefined)", "melting point": 220}, {"smiles": "CC(C)CN1C(=O)C2CC(c3ccc([N+](=O)[O-])cc3)(C2)C1=O", "melting point": "136 to 137"}, {"smiles": "CCc1cnc(N2CCN(C(=O)c3ccccc3NC3(c4ccccc4)NC=Nc4ccccc43)CC2)nc1", "note": "(centres undefined)", "melting point": "> 250"}, {"smiles": "C[C@@H]1OC(P(=O)(O)O)=CC[C@@]1(O)n1cnc2c(N)ncnc21", "melting point": 151}, {"smiles": "COc1cc2c(cc1Cl)CC(=O)NN=C2c1ccc([N+](=O)[O-])cc1", "melting point": "258 to 262"}, {"smiles": "CCOc1cc2c(cc1OCC)-c1c(C#N)sc(=N)n1CC2", "melting point": "180 to 182"}, {"smiles": "CC(C)C(=O)OC(OC(=O)NC1(C(=O)O)CC1)C(C)C", "note": "(centres undefined)", "melting point": "127 to 129"}, {"smiles": "O=C(O)CC1(CC(O)=NO)CCCCC1", "melting point": 104}, {"smiles": "CC(C)N1C(=O)c2ccccc2N(C#N)S1(=O)=O", "melting point": "99 to 101"}, {"smiles": "CC1(O)Nc2cc(O)c(C(C)(C)C)cc2O1", "note": "(centres undefined)", "melting point": "203 to 205"}, {"smiles": "C/C(=N\\OCCOc1ccc(C(=O)O)c(O)c1)c1ccc(C(C)(C)C)cc1", "melting point": "157 to 159"}, {"smiles": "CC(=O)Oc1ccccc1-c1ccc(Cl)nn1", "melting point": "131 to 134"}, {"smiles": "O=C(NCCCCCCOC(=O)N1CCC2(CCCC2)CC1)OC1CCN(C(=O)Oc2ccc(Oc3ccccc3)cc2)CC1", "melting point": "83 to 85"}, {"smiles": "C[C@@H]1O[C@@]1(Cn1cncn1)c1ccc(F)cc1F", "note": "(racemic)", "melting point": "66 to 68"}, {"smiles": "O=C(Cn1cncc(NC(=O)OCc2ccccc2)c1=O)NC(Cc1ccccc1)C(=O)C(F)(F)F", "note": "(centres undefined)", "melting point": "132 to 134"}, {"smiles": "CCN(CC)C(=O)CCS(=O)(=O)c1cc(-c2ccccc2)nc2ccccc12", "melting point": 100}]}]}
